The source of these data is PMC6430500, “3-Fluoro-4-hydroxyprolines: Synthesis, Conformational Analysis, and Stereoselective Recognition by the VHL E3 Ubiquitin Ligase for Targeted Protein Degradation” (Journal of the American Chemical Society, 2018).

For one assay, the target named is T1, VBC and Brd4BD2 (Homo sapiens, UniProt O60885+P40337).
T1 construct: VHL (54–213), ElonginC (17–112) and; Brd4BD2 (333–460); His6 (N, cleaved yes); made in house; host or cells: E. coli BL21(DE3)
The assay can be described thus: ITC ternary complex formation, VBC titrated into PROTAC:Brd4BD2. It counts as binding. The following applies: for α (cooperativity): Kd binary,VBC/Kd ternary; for α (cooperativity) / ΔΔG: Brd4BD2; for Kd / ΔG / ΔH / –TΔS: PROTAC:Brd4BD2 in cell, VBC in syringe; for ΔΔG: ternary vs binary. From the text: (§1) structure (C2 R, C3 S, C4 R) assumed on the basis of unchanging stereogenic centres in the synthesis.
(§2) Final R(F) = 0.033, wR(F 2) = 0.085 for 275 parameters and 3901 reflections with I > 2σ(I) (corresponding R-values based on all 4067 reflections = 0.035 and 0.086, respectively), CCDC […]
(§3) Protein expression and purification.
(§4) Wild-type versions of human proteins VHL (UniProt accession number: P40337), ElonginC […]
(§5) expression. For expression of VBC, N-terminally His6-tagged VHL (54–213), ElonginC (17–112) and ElonginB (1–104) were co- expressed in Escherichia coli BL21(DE3) at 24 °C for 16 h using 0.3 mM isopropyl β-D -1-thiogalactopyranoside (IPTG). E. coli cells were lysed using a pressure cell homogenizer (Stansted Fluid Power) and lysate clarified by centrifugation. His6-tagged VCB was purified on a HisTrap FF affinity column (GE Healthcare) by elution with an imidazole gradient. The His6tag was removed using TEV protease and the untagged complex dialyzed into low -concentration imidazole buffer. VCB was then flowed through the HisTrap FF column a second time, allowing impurities to bind, as the complex eluted without binding. VCB was then additionally purified by anion exchange and size-exclusion chromatography using ResourceQ and Superdex-75 columns (GE Healthcare), respectively. The final purified complex was stored in 20 mM Bis–Tris, pH 7, 150 mM sodium chloride and 1 mM dithiothreitol (DTT). Brd2BD1 (71–194), and Brd4BD2 (333–460) were expressed with an N-terminal His6 tag in E. coli BL21(DE3) at 18 °C for 20 h using 0.2 mM IPTG.
(§6) His6-tagged BDs were purified on nickel Sepharose 6 fast flow beads (GE Healthcare) by elution with increasing concentrations of imidazole. For crystallography the His6-tagged BD was cleaved with TEV protease and dialyzed into low-concentration imidazole buffer. The BD was then flowed over the nickel beads a second time to remove impurities and protease. BDs were then additionally purified by size-exclusion chromatography using a Superdex-75 column. The BDs were purified by size-exclusion chromatography using a Superdex-75 column. The final purified proteins were stored in 20 mM 4-(2-hydroxyethyl)-1-piperazineethanesulfonic acid (HEPES), pH 7.5, 150 mM sodium chloride and 1 mM DTT. All chromatography purification steps were performed using Äkta FPLC purification systems (GE Healthcare) or glass econo-columns (Bio-Rad) at room temperature.
(§7) Isothermal titration calorimetry (ITC) of peptides and ligands
(§8) Titrations were performed on an ITC200 micro-calorimeter (GE Healthcare). The peptides were dissolved in buffer (20 mM Bis–Tris propane, 100 mM NaCl, 1 mM tris(2-carboxyethyl)phosphine […]
(§9) (TCEP), pH 7.4) at 100 µM. The compounds were titrated against 10 µM VBC complex, equilibrated in the same buffer. The titrations consisted of 20 injections of 2 µL of peptide solution at a rate of 0.5 µL/s at 120 s time intervals. An initial injection of ligand (0.4 µL) was made and discarded during data analysis. All experiments were performed at 25°C while stirring at 650 rpm.
(§10) Ligands 14a- b were diluted from DMSO stock solution to 300 µM in buffer (20 mM Bis-Tris propane, 150 mM NaCl, 1 mM TCEP, pH 7.4). The compounds were titrated against 30 µM VBC complex, equilibrated in the same buffer. The final concentration of DMSO in each experiment was […]
(§11) The data were fitted to a single-binding-site model using the MicroCal PEAQ-ITC analysis software provided by the manufacturer to obtain the stoichiometry n, the dissociation constant K d, and the enthalpy of binding ΔH . The reported values are the mean ± s.e.m. from independent measurements.
(§12) Isothermal titration calorimetry (ITC)of PROTACs
(§13) The titrations were all performed as reverse mode (protein in syringe, ligand in cell) and consisted of 19 injections of 2 µl protein solution (20 mM Bis–Tris propane, 100 mM NaCl, 1 mM tris(2-carboxyethyl)phosphine (TCEP), pH 7.4) at a rate of 0.5 µl/s at 120 s time intervals. An initial injection (0.4 µl) was made and discarded during data analysis. […]

The next assay addresses T2, Brd4BD2 (Homo sapiens, UniProt O60885).
T2 construct: Brd4BD2 (333–460); made in house; host or cells: E. coli BL21(DE3)
The assay can be described thus: ITC of PROTACs, binary titration with Brd4BD2. It counts as binding. The following applies: PROTAC in cell, Brd4BD2 in syringe.
Excerpt: as §1, §2, §3, §4, §5, §6, §7, §8, §9, §10, §11, §12, §13

For `Cc1ncsc1-c1ccc(CNC(=O)[C@@H]2[C@@H](F)[C@@H](O)CN2C(=O)[C@@H](NC(=O)COCCOCCOCCNC(=O)C[C@@H]2N=C(c3ccc(Cl)cc3)c3c(sc(C)c3C)-n3c(C)nnc32)C(C)(C)C)cc1` [15a], on VBC and Brd4BD2, the “α (cooperativity)” value was found to be 9.5; the affinity, expressed as Kd, was 26 ± 5 nM; the ΔG is given as -10.13 kcal/mol; the ΔH is -10.9 ± 0.7 kcal/mol. Moreover, on VBC and Brd4BD2, the “–TΔS” value is -0.6 ± 0.4 kcal/mol and the ΔΔG is given as -1.12 kcal/mol. In addition, at Brd4BD2, binding was put at a Kd of 28 ± 2 nM, the ΔG is -10.30 kcal/mol, the ΔH is -10.4 ± 0.8 kcal/mol and the “–TΔS” value came to 0.1 ± 0.6 kcal/mol.
As for `Cc1ncsc1-c1ccc(CNC(=O)[C@@H]2[C@H](F)[C@@H](O)CN2C(=O)[C@@H](NC(=O)COCCOCCOCCNC(=O)C[C@@H]2N=C(c3ccc(Cl)cc3)c3c(sc(C)c3C)-n3c(C)nnc32)C(C)(C)C)cc1` [15b], at VBC and Brd4BD2, the “α (cooperativity)” value was determined as 14.5, binding was characterised by a dissociation constant (Kd) of 42 ± 6 nM, the ΔG was -10.01 kcal/mol and the ΔH is reported as -7.75 kcal/mol. At VBC and Brd4BD2, the “–TΔS” value is reported as -2.34 kcal/mol and the ΔΔG is -1.6 ± 0.1 kcal/mol. On Brd4BD2, the affinity, expressed as Kd, was 32 ± 3 nM; the ΔG is given as -10.3 ± 0.1 kcal/mol; the ΔH is listed as -9.3 ± 0.4 kcal/mol; the “–TΔS” value is given as -0.9 ± 0.4 kcal/mol.

One may read the Kd as the free concentration of one partner at which half of the binding sites on the other are occupied at equilibrium, for simple one-to-one binding. Higher therefore signals a looser complex.
